Data: the NIST ThermoML archive (doi:10.1021/je301294a)
Numbers after ± are expanded uncertainties.

Conditions: Liquid, Closed cell (Static) method

Structure (SMILES)	vapor or sublimation pressure (373.15 K)	vapor or sublimation pressure (383.15 K)	vapor or sublimation pressure (393.15 K)	vapor or sublimation pressure (403.15 K)	vapor or sublimation pressure (413.15 K)	vapor or sublimation pressure (423.15 K)	vapor or sublimation pressure (433.15 K)	vapor or sublimation pressure (443.15 K)	vapor or sublimation pressure (453.15 K)
CCCCCCCCCC(=O)OCC [ethyl decanoate]	0.5827 ± 0.036 kPa	0.9771 ± 0.025 kPa	1.586 ± 0.021 kPa	2.498 ± 0.027 kPa	3.829 ± 0.035 kPa	5.726 ± 0.048 kPa	8.371 ± 0.066 kPa	11.99 ± 0.091 kPa	16.84 ± 0.12 kPa
CCCCCC(=O)OCC [ethyl hexanoate]	11.35 ± 0.24 kPa	16.69 ± 0.14 kPa	23.94 ± 0.19 kPa	33.59 ± 0.27 kPa	46.18 ± 0.37 kPa	62.32 ± 0.49 kPa	82.69 ± 0.65 kPa	108.02 ± 0.85 kPa	139.11 ± 1.1 kPa
CCCCCCCCCCCCCC(=O)OCC [ethyl tetradecanoate]	0.0326 ± 0.0025 kPa	0.0623 ± 0.0044 kPa	0.1143 ± 0.0078 kPa	0.2019 ± 0.013 kPa	0.3448 ± 0.022 kPa	0.5712 ± 0.036 kPa	0.9198 ± 0.024 kPa	1.443 ± 0.021 kPa	2.211 ± 0.025 kPa
CCCCCCCCCCCCCC [tetradecane]	0.444 ± 0.028 kPa	0.7516 ± 0.02 kPa	1.23 ± 0.031 kPa	1.954 ± 0.044 kPa	3.017 ± 0.065 kPa	4.543 ± 0.096 kPa	6.684 ± 0.14 kPa	9.627 ± 0.2 kPa	13.6 ± 0.1 kPa
